Assay results: ChEMBL document CHEMBL5113380, “Functionalized quinoxalinones as privileged structures with broad-ranging pharmacological activities” (Eur J Med Chem, 2022)
Converted amounts (≈) assume the structure as drawn.

test system: not listed separately; assay: Antioxidant activity assessed as DPPH radical scavenging activity at 100 uM; type: functional; details: not given

SMILES | Activity [%]
O=C(O)Cn1c(=O)c(/C=C/c2ccc(O)c(O)c2)nc2ccc(O)cc21 | 96.2
O=c1c(/C=C/c2ccc(O)c(O)c2)nc2ccccc2n1-c1cnn(O)c1 | 95.6
COc1cc(/C=C/c2nc3ccccc3n(CC(=O)O)c2=O)ccc1O | 95.4
O=C(O)Cn1c(=O)c(-c2ccc(O)cc2O)nc2ccc(F)cc21 | 9.1
O=c1c(/C=C/c2ccc(O)cc2)nc2ccc(F)cc2n1-c1cnn(O)c1 | 65.3
COc1ccc2nc(/C=C/c3ccc(O)cc3)c(=O)n(CC(=O)O)c2c1 | 59.2

test system: not listed separately; assay: Inhibition of ALR1 (unknown origin) relative to control; design: concentration or dose not given beside the values; details: Homo sapiens; concentration not given here

SMILES | inhibition [%]
O=C(O)Cn1c(=O)c(/C=C/c2ccc(O)c(O)c2)nc2ccc(O)cc21 | 42.1
O=c1c(/C=C/c2ccc(O)c(O)c2)nc2ccccc2n1-c1cnn(O)c1 | 30.5
COc1cc(/C=C/c2nc3ccccc3n(CC(=O)O)c2=O)ccc1O | 32.6
O=C(O)Cn1c(=O)c(-c2ccc(O)cc2O)nc2ccc(F)cc21 | 46.2
O=c1c(/C=C/c2ccc(O)cc2)nc2ccc(F)cc2n1-c1cnn(O)c1 | 34.3
COc1ccc2nc(/C=C/c3ccc(O)cc3)c(=O)n(CC(=O)O)c2c1 | 37.6

test system: Pseudomonas aeruginosa; assay: Antibacterial activity against Pseudomonas aeruginosa; type: functional; details: not given

SMILES | MBC [µM]
COc1ccc(C2SCC(=O)N2c2ccc3nc(Cc4ccc(O)cc4)c(=O)[nH]c3c2)cc1 (centres undefined) | 680 (≈ 313 µg/mL)
CSCCc1nc2ccc(N3C(=O)CSC3c3ccc(F)cc3)cc2[nH]c1=O (centres undefined) | 70.3 (≈ 29.2 µg/mL)
O=C1CSC(c2ccc(F)cc2)N1c1ccc2nc(Cc3ccc(O)cc3)c(=O)[nH]c2c1 (centres undefined) | 21.7 (≈ 9.71 µg/mL)

species: Homo sapiens; assay: Inhibition of human TRK relative to control; design: concentration or dose not given beside the values; details: concentration not given here

SMILES | inhibition [%]
Cc1nn(-c2ccccc2)c(N(C)C)c1/C=N/Nc1nc2ccccc2nc1O | 62
Cc1nn(-c2ccccc2)c(N2CCOCC2)c1/C=N/Nc1nc2ccccc2nc1O | 84
Cc1nn(-c2ccccc2)c(N2CCNCC2)c1/C=N/Nc1nc2ccccc2nc1O | 20
Cc1nn(-c2ccccc2)c(N2CCCCC2)c1/C=N/Nc1nc2ccccc2nc1O | 74

test system: Staphylococcus aureus; assay: Antibacterial activity against Staphylococcus aureus; type: functional; details: not given

SMILES | MBC [µM]
COc1ccc(C2SCC(=O)N2c2ccc3nc(Cc4ccc(O)cc4)c(=O)[nH]c3c2)cc1 (centres undefined) | 15.9 (≈ 7.31 µg/mL)
CSCCc1nc2ccc(N3C(=O)CSC3c3ccc(F)cc3)cc2[nH]c1=O (centres undefined) | 23.4 (≈ 9.72 µg/mL)
O=C1CSC(c2ccc(F)cc2)N1c1ccc2nc(Cc3ccc(O)cc3)c(=O)[nH]c2c1 (centres undefined) | 43.5 (≈ 19.5 µg/mL)

test system: not listed separately; assay: Inhibition of ALR2 (unknown origin); design: species or system Homo sapiens; details: not given

SMILES | IC50 [µM]
O=C(O)Cn1c(=O)c(/C=C/c2ccc(O)c(O)c2)nc2ccc(O)cc21 | 0.102
O=c1c(/C=C/c2ccc(O)c(O)c2)nc2ccccc2n1-c1cnn(O)c1 | 0.148
COc1cc(/C=C/c2nc3ccccc3n(CC(=O)O)c2=O)ccc1O | 0.419
O=C(O)Cn1c(=O)c(-c2ccc(O)cc2O)nc2ccc(F)cc21 | 0.032
O=c1c(/C=C/c2ccc(O)cc2)nc2ccc(F)cc2n1-c1cnn(O)c1 | 0.107
COc1ccc2nc(/C=C/c3ccc(O)cc3)c(=O)n(CC(=O)O)c2c1 | 0.059

test system: not listed separately; assay: Antioxidant activity assessed as DPPH radical scavenging activity at 10 uM; type: functional; details: not given

SMILES | Activity [%]
O=C(O)Cn1c(=O)c(/C=C/c2ccc(O)c(O)c2)nc2ccc(O)cc21 | 70.5
O=c1c(/C=C/c2ccc(O)c(O)c2)nc2ccccc2n1-c1cnn(O)c1 | 40.8
COc1cc(/C=C/c2nc3ccccc3n(CC(=O)O)c2=O)ccc1O | 39.6
O=c1c(/C=C/c2ccc(O)cc2)nc2ccc(F)cc2n1-c1cnn(O)c1 | 18.7

test system: Klebsiella pneumoniae; assay: Antibacterial activity against Klebsiella pneumoniae; type: functional; details: not given

SMILES | MBC [µM]
CSCCc1nc2ccc(N3C(=O)CSC3c3ccc(F)cc3)cc2[nH]c1=O (centres undefined) | 11.7 (≈ 4.86 µg/mL)
O=C1CSC(c2ccc(F)cc2)N1c1ccc2nc(Cc3ccc(O)cc3)c(=O)[nH]c2c1 (centres undefined) | 87 (≈ 38.9 µg/mL)

target: Prostaglandin G/H synthase 1 (Homo sapiens, UniProt P23219); details: not given
Sequence (P23219 whole entry): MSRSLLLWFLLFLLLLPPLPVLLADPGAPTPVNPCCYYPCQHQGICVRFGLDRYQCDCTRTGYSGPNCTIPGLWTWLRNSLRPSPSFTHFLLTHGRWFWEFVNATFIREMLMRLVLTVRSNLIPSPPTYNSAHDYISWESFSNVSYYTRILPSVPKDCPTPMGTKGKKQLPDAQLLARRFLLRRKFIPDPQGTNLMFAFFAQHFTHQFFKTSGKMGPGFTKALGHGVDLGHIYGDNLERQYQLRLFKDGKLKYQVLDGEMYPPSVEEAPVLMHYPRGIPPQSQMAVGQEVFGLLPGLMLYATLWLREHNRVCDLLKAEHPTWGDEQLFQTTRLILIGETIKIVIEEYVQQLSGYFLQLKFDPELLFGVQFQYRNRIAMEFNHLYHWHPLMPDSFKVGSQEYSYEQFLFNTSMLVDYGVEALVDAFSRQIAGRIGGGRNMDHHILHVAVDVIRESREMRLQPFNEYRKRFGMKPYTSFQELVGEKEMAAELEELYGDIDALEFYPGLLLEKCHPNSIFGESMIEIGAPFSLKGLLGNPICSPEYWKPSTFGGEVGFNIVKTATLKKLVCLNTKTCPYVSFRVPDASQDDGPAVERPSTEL

SMILES | IC50 [µM]
Cc1nn(-c2ccccc2)c(N(C)C)c1/C=N/Nc1nc2ccccc2nc1O | > 50
Cc1nn(-c2ccccc2)c(N2CCOCC2)c1/C=N/Nc1nc2ccccc2nc1O | > 50
Cc1nn(-c2ccccc2)c(N2CCNCC2)c1/C=N/Nc1nc2ccccc2nc1O | > 50
Cc1nn(-c2ccccc2)c(N2CCCCC2)c1/C=N/Nc1nc2ccccc2nc1O | > 50

test system: not listed separately; assay: Antioxidant activity assessed as DPPH radical scavenging activity; type: functional; details: read-out: IC50

SMILES | IC50 [µM]
COc1ccc(C2SCC(=O)N2c2ccc3nc(Cc4ccc(O)cc4)c(=O)[nH]c3c2)cc1 (centres undefined) | 19.6
CSCCc1nc2ccc(N3C(=O)CSC3c3ccc(F)cc3)cc2[nH]c1=O (centres undefined) | 156
O=c1c(/C=C/c2ccc(O)c(O)c2)nc2ccccc2n1-c1cnn(O)c1 | 20.9
COc1cc(/C=C/c2nc3ccccc3n(CC(=O)O)c2=O)ccc1O | 24.1
O=C1CSC(c2ccc(F)cc2)N1c1ccc2nc(Cc3ccc(O)cc3)c(=O)[nH]c2c1 (centres undefined) | 239
O=c1c(/C=C/c2ccc(O)cc2)nc2ccc(F)cc2n1-c1cnn(O)c1 | 78.9

target: T1, Alpha amylase (Homo sapiens, UniProt P0DUB6); assay: Inhibition of alpha-amylase (unknown origin); details: not given
T1 sequence (P0DUB6 whole entry): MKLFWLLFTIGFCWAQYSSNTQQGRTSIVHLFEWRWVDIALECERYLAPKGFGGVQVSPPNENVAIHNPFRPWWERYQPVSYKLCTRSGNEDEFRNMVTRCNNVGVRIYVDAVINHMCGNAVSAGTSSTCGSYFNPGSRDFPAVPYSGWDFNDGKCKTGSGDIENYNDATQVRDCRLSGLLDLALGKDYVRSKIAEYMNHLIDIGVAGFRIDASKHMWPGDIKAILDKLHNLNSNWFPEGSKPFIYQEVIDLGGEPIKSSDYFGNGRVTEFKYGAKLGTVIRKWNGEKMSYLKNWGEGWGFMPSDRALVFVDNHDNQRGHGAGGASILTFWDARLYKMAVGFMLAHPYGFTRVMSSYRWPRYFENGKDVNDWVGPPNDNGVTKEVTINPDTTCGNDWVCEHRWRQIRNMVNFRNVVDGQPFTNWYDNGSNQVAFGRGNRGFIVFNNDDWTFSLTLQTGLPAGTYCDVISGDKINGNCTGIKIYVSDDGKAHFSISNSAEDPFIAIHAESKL

SMILES | IC50 [µM]
COc1ccc(C2SCC(=O)N2c2ccc3nc(Cc4ccc(O)cc4)c(=O)[nH]c3c2)cc1 (centres undefined) | 301.59

test system: Staphylococcus aureus; assay: Antibacterial activity against methicillin-resistant Staphylococcus aureus; type: functional; details: not given

SMILES | MBC [µM]
COc1ccc(C2SCC(=O)N2c2ccc3nc(Cc4ccc(O)cc4)c(=O)[nH]c3c2)cc1 (centres undefined) | 63.8 (≈ 29.3 µg/mL)
CSCCc1nc2ccc(N3C(=O)CSC3c3ccc(F)cc3)cc2[nH]c1=O (centres undefined) | 93.7 (≈ 38.9 µg/mL)
O=C1CSC(c2ccc(F)cc2)N1c1ccc2nc(Cc3ccc(O)cc3)c(=O)[nH]c2c1 (centres undefined) | 87 (≈ 38.9 µg/mL)

test system: not listed separately; assay: Antioxidant activity assessed as DPPH radical scavenging activity at 50 uM; type: functional; details: not given

SMILES | Activity [%]
O=C(O)Cn1c(=O)c(/C=C/c2ccc(O)c(O)c2)nc2ccc(O)cc21 | 82.1
O=c1c(/C=C/c2ccc(O)c(O)c2)nc2ccccc2n1-c1cnn(O)c1 | 72.5
COc1cc(/C=C/c2nc3ccccc3n(CC(=O)O)c2=O)ccc1O | 68.8
O=c1c(/C=C/c2ccc(O)cc2)nc2ccc(F)cc2n1-c1cnn(O)c1 | 31.5
COc1ccc2nc(/C=C/c3ccc(O)cc3)c(=O)n(CC(=O)O)c2c1 | 34.3

test system: Escherichia coli; assay: Antibacterial activity against Escherichia coli; type: functional; details: not given

SMILES | MBC [µM]
COc1ccc(C2SCC(=O)N2c2ccc3nc(Cc4ccc(O)cc4)c(=O)[nH]c3c2)cc1 (centres undefined) | 21.2 (≈ 9.74 µg/mL)
CSCCc1nc2ccc(N3C(=O)CSC3c3ccc(F)cc3)cc2[nH]c1=O (centres undefined) | 46.8 (≈ 19.4 µg/mL)
O=C1CSC(c2ccc(F)cc2)N1c1ccc2nc(Cc3ccc(O)cc3)c(=O)[nH]c2c1 (centres undefined) | 32.6 (≈ 14.6 µg/mL)

test system: Candida albicans; assay: Antifungal activity against Candida albicans; type: functional; details: not given

SMILES | MBC [µM]
COc1ccc(C2SCC(=O)N2c2ccc3nc(Cc4ccc(O)cc4)c(=O)[nH]c3c2)cc1 (centres undefined) | 85 (≈ 39.1 µg/mL)
CSCCc1nc2ccc(N3C(=O)CSC3c3ccc(F)cc3)cc2[nH]c1=O (centres undefined) | 35.1 (≈ 14.6 µg/mL)
O=C1CSC(c2ccc(F)cc2)N1c1ccc2nc(Cc3ccc(O)cc3)c(=O)[nH]c2c1 (centres undefined) | 65.2 (≈ 29.2 µg/mL)
